Results published in US10875860B2, “Azaindenoisoquinoline compounds and uses thereof” (Purdue Research Foundation, priority 2016, dated 2020).
Read-outs that look alike come from different tables or passages of the source.

Columns and labels:
[1] = molecular target: Tdp1 (Homo sapiens, UniProt Q9NUW8); assay: Recombinant Tdp1 assay; type: biochemical
[2] = system: NCI-60 panel of human cancer cell lines; assay: NCI-60 screen, mean graph midpoint over all cell lines; conditions: Homo sapiens, read-out: Cytotoxicity (GI50) MGM
[3] = system: UACC-62; assay: NCI-60 cytotoxicity, UACC-62; conditions: Homo sapiens, UACC-62, read-out: Cytotoxicity (GI50) Melanoma UACC-62
[4] = system: DU-145; assay: NCI-60 cytotoxicity, DU-145; type: cell-based; conditions: Homo sapiens, single determinations, Table 2, read-out: Cytotoxicity (GI50) Prostate DU-145
[5] = system: HOP-62; assay: NCI-60 cytotoxicity, HOP-62; conditions: Homo sapiens, HOP-62, read-out: Cytotoxicity (GI50) Lung HOP-62
[6] = system: SF-539; assay: NCI-60 cytotoxicity, SF-539; conditions: Homo sapiens, SF-539, read-out: Cytotoxicity (GI50) CNS SF-539
[7] = system: MCF-7; assay: NCI-60 cytotoxicity, MCF-7; conditions: Homo sapiens, MCF7, read-out: Cytotoxicity (GI50) Breast MCF-7
[8] = molecular target: T1, recombinant human TDP2 (Homo sapiens, UniProt O95551); assay: Recombinant Tdp2 assay; type: biochemical
T1 sequence (O95551 1-362): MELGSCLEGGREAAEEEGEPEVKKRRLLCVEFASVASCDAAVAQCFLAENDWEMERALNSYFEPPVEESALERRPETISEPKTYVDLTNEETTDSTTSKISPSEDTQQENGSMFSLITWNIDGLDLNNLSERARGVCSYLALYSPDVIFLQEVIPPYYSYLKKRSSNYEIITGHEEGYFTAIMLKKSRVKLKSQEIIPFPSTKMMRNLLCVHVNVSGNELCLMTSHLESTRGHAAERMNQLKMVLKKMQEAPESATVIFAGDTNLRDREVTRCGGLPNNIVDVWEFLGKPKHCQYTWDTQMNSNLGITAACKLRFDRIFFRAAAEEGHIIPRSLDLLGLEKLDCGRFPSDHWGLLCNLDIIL
Procedure: TDP2 reactions were carried out as described previously with the following modifications. […] Reactions were terminated and treated similarly to whole-cell extract and recombinant Tdp1 reactions (see previous paragraph).

[9] = system: HCT-116; assay: NCI-60 cytotoxicity, HCT-116; type: cell-based; conditions: Homo sapiens, single determinations, Table 2, read-out: Cytotoxicity (GI50) Colon HCT-116
[10] = system: OVCAR-3; assay: NCI-60 cytotoxicity, OVCAR-3; conditions: Homo sapiens, OVCAR-3, read-out: Cytotoxicity (GI50) Ovarian Ovcar-3
[11] = molecular target: T2, Top1 (Homo sapiens, UniProt P11387); assay: Top1-mediated DNA cleavage assay; type: biochemical; parameters: Top1 inhibitory activity level / Top1 inhibitory activity score: key to the marks not given beside the values
T2 sequence (P11387 1-765): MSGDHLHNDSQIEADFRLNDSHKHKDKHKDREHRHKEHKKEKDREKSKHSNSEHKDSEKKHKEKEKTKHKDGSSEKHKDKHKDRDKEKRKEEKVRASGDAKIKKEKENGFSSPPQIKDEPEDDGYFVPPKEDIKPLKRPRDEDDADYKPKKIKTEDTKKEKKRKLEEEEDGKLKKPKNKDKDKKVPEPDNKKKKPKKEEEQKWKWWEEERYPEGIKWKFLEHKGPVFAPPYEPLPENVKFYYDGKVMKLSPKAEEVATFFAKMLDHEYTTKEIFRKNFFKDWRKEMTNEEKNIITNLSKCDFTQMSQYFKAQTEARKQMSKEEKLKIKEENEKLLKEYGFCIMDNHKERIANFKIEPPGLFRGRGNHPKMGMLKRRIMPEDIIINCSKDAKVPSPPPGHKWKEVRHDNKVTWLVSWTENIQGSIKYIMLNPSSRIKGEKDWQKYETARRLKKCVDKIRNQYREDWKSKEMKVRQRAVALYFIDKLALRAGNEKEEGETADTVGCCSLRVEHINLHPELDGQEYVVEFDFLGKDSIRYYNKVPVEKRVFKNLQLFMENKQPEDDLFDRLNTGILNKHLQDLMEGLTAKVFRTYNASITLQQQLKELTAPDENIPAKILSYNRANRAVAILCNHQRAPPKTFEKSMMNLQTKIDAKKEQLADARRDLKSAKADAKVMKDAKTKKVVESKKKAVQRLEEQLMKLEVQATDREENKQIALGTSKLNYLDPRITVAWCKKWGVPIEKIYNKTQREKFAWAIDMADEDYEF

[12] = system: SN12C; assay: NCI-60 cytotoxicity, SN12C; conditions: Homo sapiens, read-out: Cytotoxicity (GI50) Renal SN12C
[13] = determined in duplicate, Table 2, read-out: Enzyme Inhibitory Activity Tdp1 (IC50)
[14] = determined in duplicate, Table 2, read-out: Enzyme Inhibitory Activity Tdp2 (IC50)
[15] = DNA cleavage relative to 1 μM MJ-III-65 (19) and 1 μM camptothecin (18), Table 2
[16] = read-out: Enzyme Inhibitory Activity Tdp1 (IC50)

Tdp1, sequence (Q9NUW8 whole entry): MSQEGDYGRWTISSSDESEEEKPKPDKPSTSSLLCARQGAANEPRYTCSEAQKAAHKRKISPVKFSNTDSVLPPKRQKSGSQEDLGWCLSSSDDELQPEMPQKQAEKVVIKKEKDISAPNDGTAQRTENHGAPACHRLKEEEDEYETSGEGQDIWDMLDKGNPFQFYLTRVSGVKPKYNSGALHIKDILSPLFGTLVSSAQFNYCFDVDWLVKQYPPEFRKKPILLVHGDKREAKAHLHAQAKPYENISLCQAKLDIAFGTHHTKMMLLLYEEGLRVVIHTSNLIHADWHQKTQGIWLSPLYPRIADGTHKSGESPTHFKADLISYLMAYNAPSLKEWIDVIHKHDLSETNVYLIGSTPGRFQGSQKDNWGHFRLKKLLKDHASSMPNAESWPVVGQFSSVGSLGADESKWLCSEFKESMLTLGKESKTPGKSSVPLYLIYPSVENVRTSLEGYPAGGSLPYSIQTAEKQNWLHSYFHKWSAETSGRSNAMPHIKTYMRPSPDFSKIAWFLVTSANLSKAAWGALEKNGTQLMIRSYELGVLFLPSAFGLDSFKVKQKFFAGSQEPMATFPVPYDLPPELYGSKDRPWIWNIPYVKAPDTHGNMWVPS

Compound | IC50 [1, 13] | GI50 [2] | GI50 [3] | GI50 [4] | GI50 [5] | GI50 [6] | GI50 [7] | IC50 [8, 14] | GI50 [9] | GI50 [10] | Enzyme Inhibitory Activity Top1 [11, 15] | Top1 inhibitory activity score ([11]; running text b88 on series 2, tested at 0.1, 1, 10 and 100 μM) | IC50 [1, 16] | GI50 [12] | IC50 [1] | IC50 [8] | Enzyme Inhibitory Activity Top1 ([11]; DNA cleavage relative to 1 μM MJ-III-65 (19) and 1 μM camptothecin (18), Table 1) | IC50 ([1]; semiquantitative scale, in duplicate, Table 1, read-out: Enzyme Inhibitory Activity Tdp1) | IC50 ([8]; semiquantitative scale, in duplicate, Table 1, read-out: Enzyme Inhibitory Activity Tdp2) | Enzyme Inhibitory Activity Top1 [11]
COc1cnc2c(c1)C(=O)c1c-2n(CCCN2CCOCC2)c(=O)c2cc(Cl)ccc12 [Compound 16a, 3-Chloro-9-methoxy-6-(3-morpholinopropyl)-5H-pyrido[3′,2′:4,5]cyclopenta[1,2-c]isoquinoline-5,11(6H)-dione] | > 111 µM | 100 nM | 180 nM | 410 nM | 270 nM | 230 nM | 90 nM | > 111 µM | 160 nM | 780 nM | +++ |  |  |  |  |  |  |  |  | 
COc1cnc2c(c1)C(=O)c1c-2n(CCCn2ccnc2)c(=O)c2cc(Cl)ccc12 [Compound 16b, 6-(3-(1H-Imidazol-1-yl)propyl)-3-chloro-9-methoxy-5H-pyrido[3′,2′:4,5]cyclopenta[1,2-c]isoquinoline-5,11(6H)-dione] | > 111 µM | 63 nM | 28 nM | 43 nM | 20 nM | 38 nM | < 10 nM | > 111 µM | 14 nM | 120 nM | +++ |  |  |  |  |  |  |  |  | 
COc1cnc2c(c1)C(=O)c1c-2n(CCCN2CCC(O)CC2)c(=O)c2cc(Cl)ccc12 [Compound 16d, 3-Chloro-6-(3-(4-hydroxypiperidin-1-yl)propyl)-9-methoxy-5H-pyrido[3′,2′:4,5]cyclopenta-[1,2-c]isoquinoline-5,11(6H)-dione] | 14 ± 1 µM | 660 nM | 190 nM | 270 nM | 94 nM | 430 nM | 42 nM | > 111 µM | 98 nM | 1420 nM | ++++ | ++++ |  |  |  |  |  |  |  | 
COc1cnc2c(c1)C(=O)c1c-2n(CCCN2CCNCC2)c(=O)c2cc(Cl)ccc12 [Compound 16e, 3-Chloro-9-methoxy-6-(3-(piperazin-1-yl)propyl)-5H-pyrido[3′,2′:4,5]cyclopenta[1,2-c]isoquinoline-5,11(6H)-dione] |  | 580 nM | 1430 nM | 242 nM | 200 nM | 1330 nM | 89 nM | > 111 µM | 298 nM | 1430 nM | + |  | 20.2 ± 3.7 µM | 489 nM |  |  |  |  |  | 
COc1cnc2c(c1)C(=O)c1c-2n(CCCNC(C)C)c(=O)c2cc(Cl)ccc12 [Compound 16f, 3-Chloro-9-methoxy-6-(3-(isopropylamino)propyl)-5H-pyrido[3′,2′:4,5]cyclopenta[1,2-c]isoquinoline-5,11(6H)-dione] | 33.3 ± 4.2 µM | 380 nM | 303 nM | 173 nM | 70 nM | 554 nM | 37 nM | > 111 µM | 138 nM | 1390 nM | ++ |  |  | 417 nM |  |  |  |  |  | 
CCNCCCn1c2c(c3ccc(Cl)cc3c1=O)C(=O)c1cc(OC)cnc1-2 [Compound 16h, 3-Chloro-9-methoxy-6-(3-(ethylamino)propyl)-5H-pyrido[3′,2′:4,5]cyclopenta[1,2-c]isoquinoline-5,11(6H)-dione] | 22.2 ± 6.4 µM | 426 nM | 532 nM | 208 nM | 122 nM | 506 nM | < 10 nM |  | 203 nM | 2130 nM |  |  |  | 675 nM |  |  |  |  |  | 
COc1cnc2c(c1)C(=O)c1c-2n(CCCN2CCCC2)c(=O)c2cc(Cl)ccc12 [Compound 16i, 3-Chloro-9-methoxy-6-(3-(pyrrolidin-1-yl)propyl)-5H-pyrido[3′,2′:4,5]cyclopenta[1,2-c]isoquinoline-5,11(6H)-dione] |  |  |  |  |  |  |  |  |  |  |  |  | 27.5 ± 0.6 µM |  |  |  |  |  |  | 
COc1cnc2c(c1)C(=O)c1c-2n(CCCN2CCN(C)CC2)c(=O)c2cc(Cl)ccc12 [Compound 16j, 3-Chloro-9-methoxy-6-(3-(4-methylpiperazin-1-yl)propyl)-5H-pyrido[3′,2′:4,5]cyclopenta[1,2-c]isoquinoline-5,11(6H)-dione] | > 111 µM | 2950 nM | 1810 nM | 3180 nM | 950 nM | 2150 nM | 487 nM |  | 980 nM | 15100 nM | + |  |  | 10200 nM |  |  |  |  |  | 
COc1cnc2c(c1)C(=O)c1c-2n(CCCN2CCOCC2)c(=O)c2cc(F)ccc12 [Compound 17a, 3-Fluoro-9-methoxy-6-(3-morpholinopropyl)-5H-pyrido[3′,2′:4,5]cyclopenta[1,2c]-isoquinoline-5,11(6H)-dione] | > 111 µM | 269 nM | 235 nM | 341 nM | 187 nM | 228 nM | 44 nM | > 111 µM | 115 nM | 250 nM | +++ |  |  | 320 nM |  |  |  |  |  | 
COc1cnc2c(c1)C(=O)c1c-2n(CCCn2ccnc2)c(=O)c2cc(F)ccc12 [Compound 17b, 6-(3-(1H-Imidazol-1-yl)propyl)-3-fluoro-9-methoxy-5H-pyrido[3′,2′:4,5]-cyclo-penta[1,2-c]isoquinoline-5,11(6H)-dione] | > 111 µM | 33 nM | 16 nM | < 10 nM | < 10 nM | 24 nM | < 10 nM | > 111 µM | < 10 nM | 43 nM | +++ |  |  | < 10 nM |  |  |  |  |  | 
CC[C@@]1(O)C(=O)OCc2c1cc1n(c2=O)Cc2cc3ccccc3nc2-1 [Compound 18, camptothecin, reference compound] |  | 40 nM | < 10 nM |  | < 10 nM | < 10 nM | 13 nM |  |  |  |  |  |  | 20 nM | > 111 µM | > 111 µM | ++++ |  |  | 
COc1cc2c3c(n(CCCNCCO)c(=O)c2cc1OC)-c1cc2c(cc1C3=O)OCO2 [Compound 19, reference compound] |  | 210 nM | 30 nM |  | 20 nM | 40 nM | < 10 nM |  |  | 500 nM |  |  |  | < 10 nM |  |  |  | 12 to 111 µM | 1 to 12 µM | ++++
